Laboratory results: US4419123A, “Herbicidal 4-trifluoromethyl-3'-carbon-substituted-4'-substituted diphenyl ethers” (Rohm and Haas Company, priority 1981, dated 1983)

Key:
[1] = Postemergence herbicidal activity (% control) against dicot weeds; settings: post-emergence, 336 h; for activity at 2241.7 g/ha: read-out: Herbicidal activity (% control), postemergence, dicots, 2 lb./A., average, about two weeks after application; for activity at 4483.4 g/ha: read-out: Herbicidal activity (% control), postemergence, dicots, 4 lb./A., average, about two weeks after application
wheat = assay: Crop tolerance (selective herbicidal activity), wheat; format: in vivo
Procedure: (§1) The following test procedure is employed.
(§2) Following the general test procedure of Example 37, diphenyl ethers are evaluated for significant tolerance (as shown by 50% or less kill of the test crop at levels of application which give more than 50% kill of many or all of the weeds of Example 73) towards some or all of the following common agronomic crops (not all compounds tested against all crops): alfalfa, snapbeans, corn, cotton, cucumbers, peanuts, rape, rice, safflower, soybeans, tomatoes, and wheat.

rice = assay: Crop tolerance (selective herbicidal activity), rice; format: in vivo
cotton = assay: Crop tolerance (selective herbicidal activity), cotton; format: in vivo; settings: preemergence applications
Procedure: as §1, §2

peanuts = assay: Crop tolerance (selective herbicidal activity), peanuts; format: in vivo
[2] = Preemergence herbicidal activity (% control) against monocot weeds; format: in vivo; settings: pre-emergence, 336 h, average, about two weeks after application, read-out: Herbicidal activity (% control), preemergence, monocots; for activity at 2241.7 g/ha: 2 lb./A.; for activity at 4483.4 g/ha: 4 lb./A.
Text: (§3) barnyardgrass (Echinochloa crusgalli) crabgrass (Digitaria spp.) nutsedge (Cyperus esculentus)
(§4) At 2 and 4 pounds per acre:
(§5) **Bermudagrass (Cynodon dactylon)
(§6) *downy brome (Bromus tectorum) foxtail (Setaria faberii)
(§7) Johnsongrass (Sorghum halepense) […]
(§8) quackgrass (Agropyron repens)
(§9) *ryegrass (Lolium perenne)
(§10) *wild oats (Avena factua)
(§11) *yellow millet (Panicum miliaceum)
as §1

[3] = Postemergence herbicidal activity (% control) against monocot weeds; format: in vivo; settings: post-emergence, 336 h, average, about two weeks after application, read-out: Herbicidal activity (% control), postemergence, monocots; for activity at 2241.7 g/ha: 2 lb./A.; for activity at 4483.4 g/ha: 4 lb./A.
Text: as §3, §4, §5, §6, §7, §8, §9, §10, §11, §1

[4] = Preemergence herbicidal activity (% control) against dicot weeds; settings: pre-emergence, 336 h; for activity at 2241.7 g/ha: read-out: Herbicidal activity (% control), preemergence, dicots, 2 lb./A., average, about two weeks after application; for activity at 4483.4 g/ha: read-out: Herbicidal activity (% control), preemergence, dicots, 4 lb./A., average, about two weeks after application
soybeans = assay: Crop tolerance (selective herbicidal activity), soybeans; format: in vivo; settings: preemergence applications
corn = assay: Crop tolerance (selective herbicidal activity), corn; format: in vivo
snapbeans = assay: Crop tolerance (selective herbicidal activity), snapbeans; format: in vivo; settings: preemergence applications
Procedure: as §1, §2

[5] = test system: Dicots (bindweed, cocklebur, coffeeweed, curly dock, lambsquarters, morningglory, pigweed, ragweed, smartweed, tomato, velvetleaf, wild carrot, wild mustard); assay: Postemergence herbicidal activity (% control) against dicot weeds; settings: average, about two weeks after application
[6] = test system: Monocots (barnyardgrass, Bermudagrass, crabgrass, downy brome, foxtail, Johnsongrass, nutsedge, quackgrass, ryegrass, wild oats, yellow millet); assay: Preemergence herbicidal activity (% control) against monocot weeds; format: in vivo; settings: average, about two weeks after application
Text: as §3, §4, §5, §6, §7, §8, §9, §10, §11, §1

[7] = test system: Monocots (barnyardgrass, Bermudagrass, crabgrass, downy brome, foxtail, Johnsongrass, nutsedge, quackgrass, ryegrass, wild oats, yellow millet); assay: Postemergence herbicidal activity (% control) against monocot weeds; format: in vivo; settings: average, about two weeks after application
Text: as §3, §4, §5, §6, §7, §8, §9, §10, §11, §1

[8] = test system: Dicots (bindweed, cocklebur, coffeeweed, curly dock, lambsquarters, morningglory, pigweed, ragweed, smartweed, tomato, velvetleaf, wild carrot, wild mustard); assay: Preemergence herbicidal activity (% control) against dicot weeds; settings: average, about two weeks after application
[9] = postemergence applications or applications on transplanted rice

Structure (SMILES) | activity at 2241.7 g/ha [1] | activity at 4483.4 g/ha [1] | Tolerance to wheat (wheat; postemergence applications) | Tolerance to rice (rice; [9]) | Tolerance to rice (rice; preemergence applications) | Tolerance to peanuts (peanuts; preemergence applications) | activity at 2241.7 g/ha [2] | activity at 4483.4 g/ha [2] | activity at 2241.7 g/ha [3] | activity at 4483.4 g/ha [3] | activity at 2241.7 g/ha [4] | activity at 4483.4 g/ha [4] | Tolerance to soybeans (soybeans) | Tolerance to wheat (wheat; preemergence applications) | Tolerance to corn (corn; postemergence applications) | Tolerance to corn (corn; preemergence applications) | other results
C#CC(C)Oc1cc(Oc2ccc(C(F)(F)F)cc2Cl)ccc1[N+](=O)[O-] (stereo not drawn) [Example 30] | 100% | 100% | Tolerance (significant tolerance (as shown by 50% or less kill of the test crop at levels of application which give more than 50% kill of many or all of the weeds of Example 73)) | Tolerance (significant tolerance (as shown by 50% or less kill of the test crop at levels of application which give more than 50% kill of many or all of the weeds of Example 73)) | Tolerance (significant tolerance (as shown by 50% or less kill of the test crop at levels of application which give more than 50% kill of many or all of the weeds of Example 73)) | Tolerance (significant tolerance (as shown by 50% or less kill of the test crop at levels of application which give more than 50% kill of many or all of the weeds of Example 73)) | 78% | 81% | 91% | 75% | 94% | 99% | Tolerance (significant tolerance (as shown by 50% or less kill of the test crop at levels of application which give more than 50% kill of many or all of the weeds of Example 73)) |  |  |  | Tolerance to cotton (cotton): Tolerance (significant tolerance (as shown by 50% or less kill of the test crop at levels of application which give more than 50% kill of many or all of the weeds of Example 73))
CCOC(=O)C(C)Oc1cc(Oc2ccc(C(F)(F)F)cc2Cl)ccc1[N+](=O)[O-] (stereo not drawn) [Example 26, 2-Chloro-α,α,α-trifluoro-p-tolyl-3-(1-carbethoxyethoxy)-4-nitrophenyl ether] | 100% | 100% |  |  |  |  | 75% | 98% | 93% | 99% | 99% | 100% | Tolerance (significant tolerance (as shown by 50% or less kill of the test crop at levels of application which give more than 50% kill of many or all of the weeds of Example 73)) | Tolerance (significant tolerance (as shown by 50% or less kill of the test crop at levels of application which give more than 50% kill of many or all of the weeds of Example 73)) | Tolerance (significant tolerance (as shown by 50% or less kill of the test crop at levels of application which give more than 50% kill of many or all of the weeds of Example 73)) |  | Tolerance to snapbeans (snapbeans): Tolerance (significant tolerance (as shown by 50% or less kill of the test crop at levels of application which give more than 50% kill of many or all of the weeds of Example 73))
O=C([O-])c1cc(Oc2ccc(C(F)(F)F)cc2Cl)ccc1[N+](=O)[O-].[Na+] [Example 48A, Sodium 5-(2-Chloro-4-trifluoromethylphenoxy)-2-nitrobenzoate] |  |  |  |  |  |  |  |  |  |  |  |  |  |  |  |  | Herbicidal activity (% control), postemergence, dicots ([5]; 2 lb./A.): 98%; Herbicidal activity (% control), postemergence, dicots ([5]; 4 lb./A.): 100%; Herbicidal activity (% control), preemergence, monocots ([6]; 2 lb./A.): 89%; Herbicidal activity (% control), preemergence, monocots ([6]; 4 lb./A.): 99%; Herbicidal activity (% control), postemergence, monocots ([7]; 2 lb./A.): 86%; Herbicidal activity (% control), postemergence, monocots ([7]; 4 lb./A.): 92%; Herbicidal activity (% control), preemergence, dicots ([8]; 2 lb./A.): 84%; Herbicidal activity (% control), preemergence, dicots ([8]; 4 lb./A.): 98%
CCN(CCO)c1cc(Oc2ccc(C(F)(F)F)cc2Cl)ccc1[N+](=O)[O-] [Example 54] | 100% | 100% | Tolerance (significant tolerance (as shown by 50% or less kill of the test crop at levels of application which give more than 50% kill of many or all of the weeds of Example 73)) | Tolerance (significant tolerance (as shown by 50% or less kill of the test crop at levels of application which give more than 50% kill of many or all of the weeds of Example 73)) | Tolerance (significant tolerance (as shown by 50% or less kill of the test crop at levels of application which give more than 50% kill of many or all of the weeds of Example 73)) |  | 98% | 83% | 71% | 79% |  | 75% | Tolerance (significant tolerance (as shown by 50% or less kill of the test crop at levels of application which give more than 50% kill of many or all of the weeds of Example 73)) | Tolerance (significant tolerance (as shown by 50% or less kill of the test crop at levels of application which give more than 50% kill of many or all of the weeds of Example 73)) | Tolerance (significant tolerance (as shown by 50% or less kill of the test crop at levels of application which give more than 50% kill of many or all of the weeds of Example 73)) | Tolerance (significant tolerance (as shown by 50% or less kill of the test crop at levels of application which give more than 50% kill of many or all of the weeds of Example 73)) | Tolerance to peanuts (peanuts; postemergence applications): Tolerance (significant tolerance (as shown by 50% or less kill of the test crop at levels of application which give more than 50% kill of many or all of the weeds of Example 73))
CCNc1cc(Oc2ccc(C(F)(F)F)cc2Cl)ccc1[N+](=O)[O-] [Example 19, 2-Chloro-α,α,α-trifluoro-p-tolyl-3-ethylamino-4-nitrophenyl ether] | 97% | 98% |  |  | Tolerance (significant tolerance (as shown by 50% or less kill of the test crop at levels of application which give more than 50% kill of many or all of the weeds of Example 73)) | Tolerance (significant tolerance (as shown by 50% or less kill of the test crop at levels of application which give more than 50% kill of many or all of the weeds of Example 73)) | 77% | 91% | 94% | 84% | 91% | 96% | Tolerance (significant tolerance (as shown by 50% or less kill of the test crop at levels of application which give more than 50% kill of many or all of the weeds of Example 73)) | Tolerance (significant tolerance (as shown by 50% or less kill of the test crop at levels of application which give more than 50% kill of many or all of the weeds of Example 73)) | Tolerance (significant tolerance (as shown by 50% or less kill of the test crop at levels of application which give more than 50% kill of many or all of the weeds of Example 73)) | Tolerance (significant tolerance (as shown by 50% or less kill of the test crop at levels of application which give more than 50% kill of many or all of the weeds of Example 73)) | 
